Holding throughout (assay type): cell-based
Assay [1] has as its system HTT mRNA. Put plainly: Splicing RT-qPCR assay, HTT canonical (CJ) and alternative (AJ) junction mRNA. The following applies: Homo sapiens, A673 or K562 cells, 24 hours; for IC50: decrease in canonical junction mRNA; for AC50: increase in alternative junction mRNA. The gist of the method:
(§1)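 A673 (DMEM/10% FBS, plated 24 h before dosing) or K562 (IMDM/10% FBS) cells treated 24 h at 37 °C with 11-point 3-fold dilutions, top final 10 uM, DMSO ≤0.25%. Lysates analysed by one-step RT-qPCR for CJ and AJ isoforms, normalized to GAPDH/GUSB (K562) or PPIA (A673).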
For orientation: Real-time PCR tracks product formation cycle by cycle.

In assay [2] the test system is Target C mRNA. Kind of assay: Gene panel canonical junction qPCR assay, Target C CJ mRNA decrease. The following applies: Homo sapiens, canonical junction qPCR, read-out: Target C IC50 (decrease in CJ mRNA levels). The gist of the method:
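A673 or K562 cells treated with compound; canonical exon-exon junction mRNA quantified by cDNA synthesis and RT-qPCR with junction-spanning primer/probe, normalized to GAPDH, GUSB or PPIA and DMSO (2^(−ΔΔCt)). Percent response from set ΔCt assay windows fitted to 4-parameter logistic; IC50 for CJ decrease.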

Assay [3] deals with MYB mRNA. Put plainly: Splicing RT-qPCR assay, MYB canonical (CJ) and alternative (AJ) junction mRNA. To be noted: Homo sapiens, A673 or K562 cells, 24 hours; for IC50: decrease in canonical junction mRNA; for AC50: increase in alternative junction mRNA. A digest of the protocol: as §1

One may read the IC50 as the concentration that gives 50% inhibition. The AC50 is the midpoint of the concentration-response curve, whichever way the signal moves. Lower therefore signals greater potency.

For `Cc1cn2cc(NC(=O)c3ccc(N4CCNC5(CCC5)C4)c4nccnc34)cc(F)c2n1` [Compound 363], the IC50 in assay [1] fell in the range of 1000 to 10000 nM; in assay [2], 1000 to 10000 nM; in assay [3], 100 to 1000 nM. Besides, the AC50 was 1000 to 10000 nM in assay [1] and 100 to 1000 nM in assay [3].
With `Cc1cn2cc(NC(=O)c3ccc(N4CCN(C)C5(CC5)C4)c4nccnc34)cc(F)c2n1` [Compound 364], the figures for the concentration for half-maximal inhibition (IC50) in assay [1], in assay [2] and in assay [3] were 100 to 1000 nM, 1000 to 10000 nM and 100 to 1000 nM, respectively. Further, the AC50 in assay [1] lay in the range of 1000 to 10000 nM; in assay [3] it was 100 to 1000 nM.
On to `CCN1CCN(c2ccc(C(=O)Nc3cc(F)c4nc(C)cn4c3)c3nccnc23)CC12CC2` [Compound 365], for which the figures for the 50% inhibitory concentration (IC50) in assay [1], in assay [2] and in assay [3] were 100 to 1000 nM, 1000 to 10000 nM and 100 to 1000 nM, respectively. The AC50 in assay [1] was 1000 to 10000 nM; in assay [3] it was 100 to 1000 nM.
For the molecule `Cc1cn2cc(NC(=O)c3ccc(N4CCN[C@H](CF)C4)c4nccnc34)cc(F)c2n1` [Compound 366], the IC50 in assay [1] lay in the range of 1000 to 10000 nM; in assay [2] it was 1000 to 10000 nM; in assay [3], 100 to 1000 nM. The AC50 in assay [1] was 1000 to 10000 nM; in assay [3] it was 100 to 1000 nM.
For the molecule `Cc1cn2cc(NC(=O)c3ccc(N4CCN[C@@H](CF)C4)c4nccnc34)cc(F)c2n1` [Compound 367], the IC50 in assay [1], in assay [2] and in assay [3] was 1000 to 10000 nM throughout. Moreover, the AC50 in assay [1] and in assay [3] was 1000 to 10000 nM each time.
With `Cc1cn2cc(NC(=O)c3ccc(N4CCNC(C)(CO)C4)c4nccnc34)cc(F)c2n1` (centres unmarked) [Compound 368], the IC50 is 1000 to 10000 nM in assay [1], 1000 to 10000 nM in assay [2] and less than 100 nM in assay [3]. The values for the AC50 in assay [1] and in assay [3] were 1000 to 10000 nM and less than 100 nM, respectively.
On to `Cc1cn2cc(NC(=O)c3ccc(N4CCN(CCO)C5(CC5)C4)c4nccnc34)cc(F)c2n1` [Compound 369], for which the results for the IC50 in assay [1], in assay [2] and in assay [3] were 1000 to 10000 nM, 1000 to 10000 nM and 100 to 1000 nM, respectively. Also, the half-maximal activity concentration (AC50) in assay [1] lay within 1000 to 10000 nM; in assay [3] it was 100 to 1000 nM.
